Legend:
[1] = system: bedstraw; assay: Test B pre/postemergence bedstraw; assay type: in vivo, Galium aparine
In short: (§1)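 Herbicidal effect was estimated by eye on a ten-point control scale after plants spent twelve to sixteen days in a greenhouse following soil or foliar treatment. Foliar sprays targeted plants at one to four leaves; all doses were formulated in a non-phytotoxic solvent with surfactant.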

[2] = system: blackgrass; assay: Test B pre/postemergence blackgrass; assay type: in vivo, Alopecurus myosuroides
In short: as §1

[3] = system: surinam grass; assay: Test B pre/postemergence surinam grass; assay type: in vivo, Brachiaria decumbens
In short: as §1

[4] = system: cocklebur; assay: Test B pre/postemergence cocklebur; assay type: in vivo, Xanthium strumarium
In short: as §1

[5] = system: corn; assay: Test B pre/postemergence corn; assay type: in vivo, Zea mays
In short: as §1

[6] = system: crabgrass; assay: Test B pre/postemergence crabgrass; assay type: in vivo, Digitaria sanguinalis
In short: as §1

[7] = system: giant foxtail; assay: Test B pre/postemergence giant foxtail; assay type: in vivo, Setaria faberii
In short: as §1

[8] = system: morningglory; assay: Test B pre/postemergence morningglory; assay type: in vivo, Ipomoea hederacea
In short: as §1

[9] = system: pigweed; assay: Test B pre/postemergence pigweed; assay type: in vivo, Amaranthus retroflexus
In short: as §1

[10] = system: rape; assay: Test B pre/postemergence rape; assay type: in vivo, Brassica napus
In short: as §1

[11] = system: soybean; assay: Test B pre/postemergence soybean; assay type: in vivo, Glycine max
In short: as §1

[12] = system: sugar beet; assay: Test B pre/postemergence sugar beet; assay type: in vivo, Beta vulgaris
In short: as §1

[13] = system: velvetleaf; assay: Test B pre/postemergence velvetleaf; assay type: in vivo, Abutilon theophrasti
In short: as §1

[14] = system: wheat; assay: Test B pre/postemergence wheat; assay type: in vivo, Triticum aestivum
In short: as §1

[15] = system: wild oat; assay: Test B pre/postemergence wild oat; assay type: in vivo, Avena fatua
In short: as §1

[16] = system: purple nutsedge; assay: Test B pre/postemergence purple nutsedge; assay type: in vivo, Cyperus rotundus
In short: as §1

[17] = system: rice; assay: Test B flood test rice; assay type: in vivo, Oryza sativa
In short: (§2)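 Each value is a visual injury score relative to controls, with 10 meaning complete control and 0 no effect. Evaluation took place twelve to sixteen days after the 2-leaf-stage plants were treated and kept in the greenhouse.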

[18] = system: smallflower flatsedge; assay: Test B flood test smallflower flatsedge; assay type: in vivo, Cyperus difformis
In short: as §2

[19] = system: duck salad; assay: Test B flood test duck salad; assay type: in vivo, Heteranthera limosa
In short: as §2

[20] = system: bamyardgrass; assay: Test B flood test barnyardgrass; assay type: in vivo, Echinochloa crus-galli
In short: as §2

[21] = Postemergence, Rate 125 g/ha, scale 0 to 10, 0 is no effect, 10 is complete control
[22] = Preemergence, Rate 250 g/ha, scale of 0 to 10 where 0 is no effect and 10 is complete control
[23] = Preemergence, Rate 500 g/ha, scale of 0 to 10 where 0 is no effect and 10 is complete control
[24] = Rate 62 g/ha, Postemergence, scale 0 to 10 (0 no effect, 10 complete control)
[25] = Preemergence, Rate 62 g/ha, scale of 0 to 10 where 0 is no effect and 10 is complete control
[26] = Rate 250 g/ha, Postemergence, scale of 0 to 10 where 0 is no effect and 10 is complete control
[27] = Rate 500 g/ha, Postemergence, scale 0 to 10, 0 no effect, 10 complete control
[28] = Rate 62 g/ha, headed Pre-emergence (flood test species), scale 0 to 10 (0 no effect, 10 complete control)
[29] = Rate 125 g/ha, Pre-emergence, flood test species, scale 0 to 10 where 0 is no effect and 10 is complete control
[30] = Rate 250 g/ha, Pre-emergence, flood-test species, scale 0 to 10, 0 is no effect, 10 is complete control
[31] = Rate 500 g/ha, Pre-emergence, flood test species, scale 0 to 10 (0 no effect, 10 complete control)

Cc1ccccc1-n1c(=O)on(C(=O)N(c2ccc(Cl)cc2)C(C)C2CC2)c1=O (stereo not shown) [Compound 330]
Plant response rating, Bedstraw [1, 21]: 0
Bedstraw plant response rating (0 to 10 scale) ([1]; Preemergence, Rate 125 g/ha): 0
Bedstraw plant response rating [1, 22]: 0
Bedstraw plant response rating [1, 23]: 0
Bedstraw plant response rating [1, 24]: 0
Plant response rating, Blackgrass [2, 21]: 0
Blackgrass plant response rating [2, 25]: 0
Blackgrass plant response rating (0 to 10 scale) ([2]; Preemergence, Rate 125 g/ha): 0
Blackgrass plant response rating [2, 22]: 0
Blackgrass plant response rating [2, 24]: 0
Plant response rating, Blackgrass [2, 26]: 0
Plant response rating, Blackgrass [2, 27]: 0
Plant response rating, B. signalgrass [3, 21]: 0
B. signalgrass plant response rating [3, 25]: 0
B. signalgrass plant response rating (0 to 10 scale, 0 is no effect, 10 is complete control) ([3]; Preemergence, Rate 125 g/ha): 0
B. signalgrass plant response rating [3, 22]: 0
B. signalgrass plant response rating [3, 23]: 0
B. signalgrass plant response rating [3, 24]: 0
Plant response rating, B. signalgrass [3, 26]: 0
Plant response rating, B. signalgrass [3, 27]: 0
Plant response rating, Cocklebur [4, 21]: 0
Cocklebur plant response rating [4, 25]: 0
Cocklebur plant response rating (0 to 10 scale) ([4]; Preemergence, Rate 125 g/ha): 0
Cocklebur plant response rating [4, 22]: 0
Cocklebur plant response rating [4, 23]: 0
Cocklebur plant response rating [4, 24]: 0
Plant response rating, Cocklebur [4, 27]: 0
Plant response rating, Corn [5, 21]: 0
Corn plant response rating [5, 25]: 0
Corn plant response rating (0 to 10 scale) ([5]; Preemergence, Rate 125 g/ha): 0
Corn plant response rating [5, 22]: 0
Corn plant response rating [5, 23]: 0
Corn plant response rating [5, 24]: 0
Plant response rating, Corn [5, 27]: 0
Plant response rating, Crabgrass [6, 21]: 0
Crabgrass plant response rating [6, 25]: 0
Crabgrass plant response rating (0 to 10 scale) ([6]; Preemergence, Rate 125 g/ha): 0
Crabgrass plant response rating [6, 22]: 0
Crabgrass plant response rating [6, 23]: 0
Crabgrass plant response rating [6, 24]: 0
Plant response rating, Crabgrass [6, 27]: 0
Plant response rating, Giant foxtail [7, 21]: 0
Giant foxtail plant response rating [7, 25]: 0
Giant foxtail plant response rating (0 to 10 scale) ([7]; Preemergence, Rate 125 g/ha): 0
Giant foxtail plant response rating [7, 22]: 0
Giant foxtail plant response rating [7, 23]: 0
Giant foxtail plant response rating [7, 24]: 0
Plant response rating, Giant foxtail [7, 27]: 0
Plant response rating, Morningglory [8, 21]: 0
Morningglory plant response rating [8, 25]: 0
Morningglory plant response rating (0 to 10 scale) ([8]; Preemergence, Rate 125 g/ha): 0
Morningglory plant response rating [8, 22]: 0
Morningglory plant response rating [8, 23]: 0
Morningglory plant response rating [8, 24]: 0
Plant response rating, Morningglory [8, 27]: 4
Plant response rating, Redroot pigweed [9, 21]: 0
Redroot pigweed plant response rating [9, 25]: 0
Redroot pigweed plant response rating (0 to 10 scale) ([9]; Preemergence, Rate 125 g/ha): 0
Redroot pigweed plant response rating [9, 22]: 0
Redroot pigweed plant response rating [9, 23]: 0
Redroot pigweed plant response rating [9, 24]: 0
Plant response rating, Redroot pigweed [9, 27]: 0
Plant response rating, Rape [10, 21]: 0
Rape plant response rating [10, 25]: 0
Rape plant response rating (0 to 10 scale) ([10]; Preemergence, Rate 125 g/ha): 0
Rape plant response rating [10, 22]: 0
Rape plant response rating [10, 23]: 0
Rape plant response rating [10, 24]: 0
Plant response rating, Rape [10, 27]: 0
Plant response rating, Soybean [11, 21]: 1
Soybean plant response rating [11, 25]: 0
Soybean plant response rating (0 to 10 scale) ([11]; Preemergence, Rate 125 g/ha): 0
Soybean plant response rating [11, 22]: 0
Soybean plant response rating [11, 23]: 0
Soybean plant response rating [11, 24]: 1
Plant response rating, Soybean [11, 27]: 1
Plant response rating, Sugarbeets [12, 21]: 0
Sugarbeets plant response rating [12, 25]: 0
Sugarbeets plant response rating (0 to 10 scale) ([12]; Preemergence, Rate 125 g/ha): 0
Sugarbeets plant response rating [12, 22]: 0
Sugarbeets plant response rating [12, 23]: 0
Sugarbeets plant response rating [12, 24]: 0
Plant response rating, Sugarbeets [12, 27]: 0
Plant response rating, Velvetleaf [13, 21]: 0
Velvetleaf plant response rating [13, 25]: 0
Velvetleaf plant response rating (0 to 10 scale) ([13]; Preemergence, Rate 125 g/ha): 0
Velvetleaf plant response rating [13, 22]: 0
Velvetleaf plant response rating [13, 23]: 0
Velvetleaf plant response rating [13, 24]: 0
Plant response rating, Velvetleaf [13, 27]: 0
Plant response rating, Wheat [14, 21]: 0
Wheat plant response rating [14, 25]: 0
Wheat plant response rating (0 to 10 scale) ([14]; Preemergence, Rate 125 g/ha): 0
Wheat plant response rating [14, 22]: 0
Wheat plant response rating [14, 23]: 0
Wheat plant response rating [14, 24]: 0
Plant response rating, Wheat [14, 27]: 0
Plant response rating, Wild oats [15, 21]: 0
Wild oats plant response rating [15, 25]: 0
Wild oats plant response rating (0 to 10 scale) ([15]; Preemergence, Rate 125 g/ha): 0
Wild oats plant response rating [15, 22]: 0
Wild oats plant response rating [15, 23]: 0
Wild oats plant response rating [15, 24]: 0
Plant response rating, Wild oats [15, 27]: 0
Plant response rating, Nutsedge [16, 21]: 0
Nutsedge plant response rating [16, 25]: 0
Nutsedge plant response rating (0 to 10 scale) ([16]; Preemergence, Rate 125 g/ha): 0
Nutsedge plant response rating [16, 22]: 0
Nutsedge plant response rating [16, 23]: 0
Nutsedge plant response rating [16, 24]: 0
Plant response rating, Nutsedge [16, 27]: 0
Rice plant response rating [17, 28]: 0
Rice plant response rating [17, 29]: 0
Rice plant response rating [17, 30]: 0
Rice plant response rating [17, 31]: 0
S. Flatsedge plant response rating [18, 28]: 0
S. Flatsedge plant response rating [18, 29]: 0
S. Flatsedge plant response rating [18, 30]: 0
S. Flatsedge plant response rating [18, 31]: 0
Ducksalad plant response rating [19, 28]: 0
Ducksalad plant response rating [19, 29]: 0
Ducksalad plant response rating [19, 30]: 0
Ducksalad plant response rating [19, 31]: 0
Barnyardgrass plant response rating [20, 28]: 0
Barnyardgrass plant response rating [20, 29]: 0
Barnyardgrass plant response rating [20, 30]: 0
Barnyardgrass plant response rating [20, 31]: 0

Reference: US6737383B1, “Herbicidal oxadiazolidines” (priority 1999, dated 2004)
